Active and inactive are the calls of the source. No cut-off for these calls is given here.

One assay has as its system 769-P. The assay is described as follows: Cytotoxicity against human 769-P cells by MTT assay. It is filed as functional, cell-based. A general note: Tetrazolium assays rely on reduction of a dye to a coloured formazan, in cell work by metabolically active cells.
The test system of the next assay is KB. As to the kind of experiment: Cytotoxicity against human KB cells by MTT assay. It is filed as functional, cell-based.
The next assay has as its system BGC-823. The assay is described as follows: Cytotoxicity against human BGC823 cells by MTT assay. Type of assay: functional, cell-based.
The next assay deals with 786-0. The assay is described as follows: Cytotoxicity against human 786-0 cells by MTT assay. Type of assay: functional, cell-based.
For another assay, the system named is HepG2. As to the kind of experiment: Cytotoxicity against human HepG2 cells by MTT assay. Type of assay: functional, cell-based.
The test system of another assay is A-375. As to the kind of experiment: Cytotoxicity against human A375 cells by MTT assay. Type of assay: functional, cell-based.
The test system of a further assay is HT-29. As to the kind of experiment: Cytotoxicity against human HT-29 cells by MTT assay. It is filed as functional, cell-based.
The subject of another assay is OS-RC-2. The assay is described as follows: Cytotoxicity against human OS-RC2 cells by MTT assay. It is filed as functional, cell-based.
Another assay concerns CWR22R. As to the kind of experiment: Cytotoxicity against human 22Rv1 cells by MTT assay. Type of assay: functional, cell-based.
The subject of another assay is MCF7. The assay is described as follows: Cytotoxicity against human MCF7 cells by MTT assay. Type of assay: functional, cell-based.
Assay [1] concerns Calf thymus DNA. As to the kind of experiment: Binding affinity to calf thymus DNA assessed as change in melting temperature at 20 uM by thermal denaturation assay. It is filed as nucleic-acid assay. Conditions: Bos taurus.
The test system of assay [2] is Calf thymus DNA. As to the kind of experiment: Binding affinity to calf thymus DNA at 20 uM by UV spectroscopy. Type of assay: nucleic-acid assay. The following applies: Bos taurus.
Assay [3] concerns Calf thymus DNA. The assay is described as follows: Binding affinity to calf thymus DNA at 10 uM by fluorescence spectroscopy. Type of assay: nucleic-acid assay. Conditions: Bos taurus.

For orientation: IC50 means the concentration at which inhibition is half-maximal. A higher IC50 goes with lower potency. For `COc1cc(-c2nc(CNCCCN(C)C)cc3c4ccccc4n(C)c23)cc(OC)c1OC`, the IC50 was over 50 µM with 769-P; over 50 µM in the assay with KB; over 50 µM in the assay on BGC-823; 30.2 µM in the assay with 786-0; 15.4 µM with HepG2; over 50 µM with A-375. Moreover, the IC50 in the assay with HT-29 was over 50 µM; in the assay on OS-RC-2, over 50 µM; in the assay with CWR22R, over 50 µM; with MCF7, 17.1 µM.

With `COc1cc(-c2nc(CNCCCN(C)C)cc3c2[nH]c2ccccc23)cc(OC)c1OC`, the IC50 in the assay with 769-P is over 50 µM; in the assay on KB, over 50 µM; in the assay with BGC-823, over 50 µM; with 786-0, over 50 µM; with HepG2, 42.7 µM; with A-375, over 50 µM. Besides, the IC50 in the assay on HT-29, with OS-RC-2, in the assay on CWR22R and in the assay on MCF7 was over 50 µM in each case.

Broadly, the ΔTm is the shift of the melting midpoint relative to a reference. Regarding `COc1cccc2c1C(=O)c1c(O)c3c(c(O)c1C2=O)C[C@@](O)(C(=O)CO)C[C@@H]3O[C@H]1C[C@H](N)[C@H](O)[C@H](C)O1`, the ΔTm in the assay on Calf thymus DNA [1] turned out to be 32 °C.

As for `COc1cc(-c2nc(CNCCCN(C)C)cc3c4ccccc4n(CCCc4ccccc4)c23)cc(OC)c1OC`, the IC50 in the assay with 769-P came out at 10.4 µM; in the assay on KB, 4.4 µM; in the assay with BGC-823, 8.5 µM; with 786-0, 6 µM; with HepG2 it was 3.9 µM; in the assay with A-375, 3.7 µM. Besides, the IC50 was determined as 7.9 µM in the assay on HT-29, 9.4 µM with OS-RC-2, 10 µM in the assay on CWR22R and 6.7 µM in the assay with MCF7.

Regarding `CCN(CC)CCNCc1cc2c3ccccc3n(C)c2c(-c2cc(OC)c(OC)c(OC)c2)n1`, the IC50 with 769-P is over 50 µM; with KB it was over 50 µM; in the assay on BGC-823, over 50 µM; in the assay on 786-0, 33.7 µM; in the assay on HepG2, 14.8 µM; in the assay with A-375, over 50 µM. Also, the IC50 with HT-29, in the assay with OS-RC-2, in the assay on CWR22R and in the assay with MCF7 was over 50 µM throughout.

`CCN(CC)CCCCNCc1cc2c3ccccc3n(C)c2c(-c2cc(OC)c(OC)c(OC)c2)n1`: the 50% inhibitory concentration (IC50) is 19.1 µM with 769-P; 42.8 µM in the assay on KB; 46.3 µM in the assay on BGC-823; 20.7 µM in the assay on 786-0; 7.1 µM with HepG2; over 50 µM with A-375. The IC50 in the assay on HT-29 was over 50 µM; with OS-RC-2, over 50 µM; in the assay on CWR22R, over 50 µM; in the assay on MCF7, 36.5 µM.

With `CCN(CC)CCNCc1cc2c3ccccc3n(CCCc3ccccc3)c2c(-c2cc(OC)c(OC)c(OC)c2)n1`, the IC50 in the assay with 769-P came to 3 µM; with KB, 2.5 µM; with BGC-823 it was 2.7 µM; in the assay with 786-0, 3.4 µM; in the assay on HepG2, 3.8 µM; in the assay with A-375, 12 µM. Besides, the IC50 was 10.9 µM in the assay on HT-29, 3 µM in the assay on OS-RC-2, 18.9 µM with CWR22R and 8.1 µM with MCF7.

Take `CCCCn1c2ccccc2c2cc(CNCCCCN(CC)CC)nc(-c3cc(OC)c(OC)c(OC)c3)c21`: the IC50 in the assay with 769-P came out at 11.6 µM; in the assay with KB it was 7.6 µM; in the assay on BGC-823 it was 19.2 µM; in the assay on 786-0 it was 11 µM; with HepG2 it was 2.5 µM; with A-375, 11 µM. For the same compound, the IC50 in the assay with HT-29 was determined as 19.8 µM; in the assay on OS-RC-2, 28.7 µM; in the assay with CWR22R, 8.5 µM; with MCF7 it was 5.3 µM.

In the case of `CCN(CC)CCCNCc1cc2c3ccccc3n(CCCc3ccccc3)c2c(-c2cc(OC)c(OC)c(OC)c2)n1`, the IC50 with 769-P came to 2.7 µM; in the assay on KB, 6.5 µM; with BGC-823 it was 5.9 µM; with 786-0, 4.7 µM; in the assay with HepG2, 1.7 µM; with A-375 it was 2.6 µM. For the same compound, the IC50 with HT-29 was 5.9 µM; in the assay with OS-RC-2 it was 8.3 µM; in the assay with CWR22R, 7 µM; in the assay on MCF7 it was 4.9 µM. Also, the result in the assay with Calf thymus DNA [2] and in the assay on Calf thymus DNA [3] was Active. Besides, the ΔTm in the assay on Calf thymus DNA [1] was determined as 14.6 °C.

In the case of `CCN(CC)CCCNCc1cc2c([nH]c3ccccc32)c(-c2cc(OC)c(OC)c(OC)c2)n1`, the IC50 with 769-P is over 50 µM; with KB, over 50 µM; in the assay on BGC-823 it was over 50 µM; with 786-0, over 50 µM; with HepG2, 39.6 µM; in the assay on A-375 it was over 50 µM. Also, the IC50 in the assay on HT-29 was over 50 µM; in the assay with OS-RC-2, 46.8 µM; with CWR22R, over 50 µM; with MCF7 it was over 50 µM. Further, the ΔTm in the assay with Calf thymus DNA [1] is 24.8 °C.

Turning to `CCCCn1c2ccccc2c2cc(CNCCCN(CC)CC)nc(-c3cc(OC)c(OC)c(OC)c3)c21`, the IC50 with 769-P was determined as 7.5 µM; in the assay with KB, 37.3 µM; in the assay with BGC-823, 6.1 µM; in the assay with 786-0 it was 7.7 µM; in the assay with HepG2 it was 8.5 µM; in the assay with A-375, 11.3 µM. For the same compound, the IC50 in the assay on HT-29 turned out to be 14 µM; in the assay on OS-RC-2 it was 25.7 µM; in the assay on CWR22R, 4.2 µM; in the assay with MCF7, 6.8 µM. In addition, the result in the assay on Calf thymus DNA [2] and in the assay with Calf thymus DNA [3] was Active. For the same compound, the ΔTm in the assay on Calf thymus DNA [1] was 14.8 °C.

Take `CCN(CC)CCCNCc1cc2c3ccccc3n(C)c2c(-c2cc(OC)c(OC)c(OC)c2)n1`: the IC50 in the assay with 769-P came out at 34.6 µM; in the assay with KB it was 29 µM; in the assay with BGC-823, 48.5 µM; in the assay with 786-0, 12.1 µM; in the assay with HepG2, 8.2 µM; in the assay on A-375, 48.4 µM. Further, the IC50 is 43.1 µM with HT-29, over 50 µM with OS-RC-2, over 50 µM in the assay with CWR22R and 28.3 µM in the assay with MCF7. Moreover, the result in the assay on Calf thymus DNA [2] and in the assay with Calf thymus DNA [3] was Active. Besides, the ΔTm in the assay with Calf thymus DNA [1] amounted to 17.3 °C.

With `CCN(CC)CCCCNCc1cc2c3ccccc3n(CCCc3ccccc3)c2c(-c2cc(OC)c(OC)c(OC)c2)n1`, the IC50 in the assay with 769-P turned out to be 3.9 µM; in the assay on KB, 6.9 µM; with BGC-823, 6.1 µM; in the assay with 786-0 it was 5.5 µM; with HepG2 it was 2.1 µM; in the assay with A-375, 3.7 µM. Moreover, the IC50 in the assay on HT-29 was 7.5 µM; in the assay with OS-RC-2, 8.7 µM; in the assay on CWR22R it was 6.3 µM; with MCF7 it was 5.2 µM.

Regarding `CCCCn1c2ccccc2c2cc(CNCCCN(C)C)nc(-c3cc(OC)c(OC)c(OC)c3)c21`, the half-maximal inhibitory concentration (IC50) in the assay on 769-P was determined as 7.3 µM; in the assay on KB, 33.5 µM; in the assay with BGC-823, 6.8 µM; with 786-0, 6 µM; in the assay with HepG2, 8.2 µM; with A-375, 11 µM. The IC50 with HT-29 came out at 11.3 µM; in the assay with OS-RC-2 it was 25.6 µM; in the assay with CWR22R it was 10.8 µM; in the assay with MCF7, 9.3 µM.

For the compound `CC(=O)O[C@H]1C(=O)[C@@]2(C)[C@H]([C@H](OC(=O)c3ccccc3)[C@]3(O)C[C@H](OC(=O)[C@H](O)[C@@H](NC(=O)c4ccccc4)c4ccccc4)C(C)=C1C3(C)C)[C@]1(OC(C)=O)CO[C@@H]1C[C@@H]2O` [PACLITAXEL], the IC50 in the assay with KB was 0.08 µM; in the assay on BGC-823 it was 1.5 µM; in the assay on 786-0, under 0.08 µM; with HepG2, under 0.08 µM; in the assay on OS-RC-2, under 0.08 µM.

Turning to `CCCCn1c2ccccc2c2cc(CNCCN(CC)CC)nc(-c3cc(OC)c(OC)c(OC)c3)c21`, the IC50 in the assay on 769-P was 14.5 µM; in the assay on KB, 44.9 µM; in the assay on BGC-823, 13.9 µM; in the assay on 786-0 it was 13.9 µM; in the assay with HepG2 it was 18.6 µM; in the assay on A-375 it was 14.5 µM. Further, the IC50 in the assay on HT-29 was over 50 µM; with OS-RC-2, 45.4 µM; with CWR22R, 8.9 µM; with MCF7, over 50 µM.

Values taken from ChEMBL document CHEMBL1275266, “Synthesis, cytotoxic activities and DNA binding properties of β-carboline derivatives” (Eur J Med Chem, 2010).
